In brackets after ≈: the same amount, converted by molar mass.
Tests used:
[1] = biological target: T1, Nuclear receptor subfamily 1 group I member 2 (Homo sapiens, UniProt O75469); assay: Activation of PXR (unknown origin)
T1 sequence (O75469 whole entry): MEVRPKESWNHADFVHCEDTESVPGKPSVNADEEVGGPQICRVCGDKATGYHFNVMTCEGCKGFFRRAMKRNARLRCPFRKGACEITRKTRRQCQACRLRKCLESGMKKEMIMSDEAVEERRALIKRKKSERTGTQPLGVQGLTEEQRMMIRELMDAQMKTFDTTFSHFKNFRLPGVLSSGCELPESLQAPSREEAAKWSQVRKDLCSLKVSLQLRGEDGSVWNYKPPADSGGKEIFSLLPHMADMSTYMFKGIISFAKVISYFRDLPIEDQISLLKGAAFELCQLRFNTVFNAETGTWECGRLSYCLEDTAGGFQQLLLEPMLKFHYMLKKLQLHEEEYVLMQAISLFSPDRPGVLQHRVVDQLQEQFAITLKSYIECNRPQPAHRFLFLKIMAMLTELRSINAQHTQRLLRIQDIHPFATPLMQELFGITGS

[2] = biological target: T2, Nuclear receptor ROR-gamma (Mus musculus, UniProt P51450); assay: Inverse agonist activity at RORgamma in C57BL/6 mouse splenocytes assessed as reduction of IL-17 production after 2 days by ELISA; type: cell-based
T2 sequence (P51450 whole entry): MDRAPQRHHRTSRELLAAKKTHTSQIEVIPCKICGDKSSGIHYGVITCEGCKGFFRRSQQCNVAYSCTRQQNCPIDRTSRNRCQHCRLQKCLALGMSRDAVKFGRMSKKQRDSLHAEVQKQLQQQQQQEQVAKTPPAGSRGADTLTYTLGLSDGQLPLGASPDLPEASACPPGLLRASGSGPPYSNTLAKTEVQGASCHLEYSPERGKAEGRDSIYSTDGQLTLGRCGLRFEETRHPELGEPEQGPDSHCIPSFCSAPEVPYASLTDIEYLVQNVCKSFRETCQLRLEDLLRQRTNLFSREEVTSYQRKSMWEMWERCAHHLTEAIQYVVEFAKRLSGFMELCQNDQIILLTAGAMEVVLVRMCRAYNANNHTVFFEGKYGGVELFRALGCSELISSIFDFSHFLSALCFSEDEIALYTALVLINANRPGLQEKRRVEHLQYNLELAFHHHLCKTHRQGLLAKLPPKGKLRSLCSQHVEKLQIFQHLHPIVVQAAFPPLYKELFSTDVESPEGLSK

[3] = biological target: T3, Nuclear receptor ROR-beta (Homo sapiens, UniProt Q92753); assay: Inverse agonist activity at RORbeta (unknown origin)
T3 sequence (Q92753 whole entry): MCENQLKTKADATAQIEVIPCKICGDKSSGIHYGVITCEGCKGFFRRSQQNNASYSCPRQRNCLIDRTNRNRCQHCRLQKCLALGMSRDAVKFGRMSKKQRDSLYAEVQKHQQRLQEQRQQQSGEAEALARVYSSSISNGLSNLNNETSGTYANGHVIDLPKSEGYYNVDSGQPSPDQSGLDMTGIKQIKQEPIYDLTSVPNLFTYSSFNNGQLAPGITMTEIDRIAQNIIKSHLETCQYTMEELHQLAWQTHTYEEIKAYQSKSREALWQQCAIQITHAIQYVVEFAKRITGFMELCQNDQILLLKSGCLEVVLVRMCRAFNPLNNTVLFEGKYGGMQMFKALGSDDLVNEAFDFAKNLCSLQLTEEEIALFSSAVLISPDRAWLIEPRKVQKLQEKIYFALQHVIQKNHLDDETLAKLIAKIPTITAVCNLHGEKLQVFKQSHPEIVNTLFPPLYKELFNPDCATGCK

[4] = biological target: T4, Nuclear receptor ROR-alpha (Homo sapiens, UniProt P35398); assay: Inverse agonist activity at RORalpha (unknown origin)
T4 sequence (P35398 whole entry): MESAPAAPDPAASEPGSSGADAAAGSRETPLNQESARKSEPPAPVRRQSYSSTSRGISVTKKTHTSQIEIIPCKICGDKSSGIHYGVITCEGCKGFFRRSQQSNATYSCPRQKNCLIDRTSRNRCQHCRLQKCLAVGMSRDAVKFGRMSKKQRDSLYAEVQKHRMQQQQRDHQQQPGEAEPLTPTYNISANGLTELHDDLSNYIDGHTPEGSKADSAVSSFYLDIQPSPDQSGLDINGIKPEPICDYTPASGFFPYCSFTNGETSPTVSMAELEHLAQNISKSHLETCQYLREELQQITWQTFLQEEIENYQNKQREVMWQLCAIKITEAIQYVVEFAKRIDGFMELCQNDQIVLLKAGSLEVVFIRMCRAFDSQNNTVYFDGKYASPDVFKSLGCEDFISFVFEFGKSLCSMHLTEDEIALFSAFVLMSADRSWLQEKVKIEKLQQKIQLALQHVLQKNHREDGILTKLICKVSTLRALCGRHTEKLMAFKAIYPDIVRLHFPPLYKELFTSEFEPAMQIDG

[5] = biological target: T5, Nuclear receptor ROR-gamma (Homo sapiens, UniProt P51449); assay: Inverse agonist activity at RORgamma (unknown origin) transfected in HEK293T cells after 16 to 20 hrs by GAL4 luciferase reporter gene assay; type: functional, cell-based, HEK-293T
T5 sequence (P51449 whole entry): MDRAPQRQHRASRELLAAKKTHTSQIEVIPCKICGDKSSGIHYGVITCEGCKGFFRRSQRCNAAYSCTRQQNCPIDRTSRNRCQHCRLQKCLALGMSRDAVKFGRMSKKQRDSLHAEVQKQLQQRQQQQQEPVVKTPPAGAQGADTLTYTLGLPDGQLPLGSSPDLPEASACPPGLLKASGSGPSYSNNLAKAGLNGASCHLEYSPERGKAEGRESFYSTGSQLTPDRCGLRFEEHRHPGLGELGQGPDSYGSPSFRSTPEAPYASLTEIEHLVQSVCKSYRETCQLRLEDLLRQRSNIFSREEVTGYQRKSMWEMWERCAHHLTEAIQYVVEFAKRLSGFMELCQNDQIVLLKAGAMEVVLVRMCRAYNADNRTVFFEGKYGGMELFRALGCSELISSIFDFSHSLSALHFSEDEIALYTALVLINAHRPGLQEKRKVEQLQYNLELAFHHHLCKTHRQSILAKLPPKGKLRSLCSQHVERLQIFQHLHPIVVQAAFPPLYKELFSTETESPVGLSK

[6] = Percentage unbound in rat plasma; type: ADME, cell-free
[7] = Percentage unbound in human plasma; type: ADME, cell-free
[8] = Kinetic aqueous solubility of the compound; type: physicochemical; details: buffer; read-out: Kinetic_solubility

| EC50 [1] | EC50 [2] | EC50 [3] | EC50 [4] | EC50 [5] | fraction unbound [6] | fraction unbound [7] | solubility kinetic [8] | SMILES |
| --- | --- | --- | --- | --- | --- | --- | --- | --- |
| > 10000 nM | 3110 nM | 900 nM | 1200 nM | – | – | – | – | [2H]C([2H])([2H])N(C(=O)c1c(F)cccc1Cl)c1ccc(-c2cc(NC(C)=O)nn2C(C)C)cc1OCC1CCC1 |
| – | – | – | – | 71 nM | – | – | – | [2H]C([2H])([2H])N(C(=O)c1c(F)cccc1Cl)c1ccc(-c2cc(NC(=O)NC(CO)CO)nn2C(C)C)cc1N1CC2CC2C1 (stereo not drawn) |
| – | 818 nM | – | – | – | 0.006 | 0.009 | < 0.1 µg/mL | [2H]C([2H])([2H])N(C(=O)c1c(F)cccc1Cl)c1ccc(-c2cnn(C)c2C(C)C)cc1OCC(F)(F)F |
| – | 354 nM | – | – | – | – | – | – | [2H]C([2H])([2H])N(C(=O)c1c(F)cccc1Cl)c1ccc(-c2cc(NC(=O)NC)nn2C(C)C)cc1N1CC2CC2C1 (stereo not drawn) |
| > 10000 nM | 11 nM | 800 nM | 1100 nM | – | 0.001 | 0.004 | 1.3 µg/mL (≈ 2.52 µM) | [2H]C([2H])([2H])N(C(=O)c1c(F)cccc1Cl)c1ccc(-c2cc(NC(C)=O)nn2C(C)C)cc1N1CCCCC1 |
| – | 134 nM | – | – | – | – | – | – | [2H]C([2H])([2H])N(C(=O)c1c(F)cccc1Cl)c1ccc(-c2cc(NC(=O)[C@H]3C[C@@H](O)C3)nn2C(C)C)cc1N1CC2CC2C1 (stereo partly drawn) |
| 500 nM | 73 nM | 600 nM | 1500 nM | – | 0.001 | 0.004 | 0.8 µg/mL (≈ 1.51 µM) | [2H]C([2H])([2H])N(C(=O)c1c(Cl)cccc1Cl)c1ccc(-c2cc(NC(C)=O)nn2C(C)C)cc1N1CC2CC2C1 (stereo not drawn) |
| – | 2000 nM | – | – | – | 0.031 | 0.059 | 32 µg/mL (≈ 62 µM) | [2H]C([2H])([2H])N(C(=O)c1c(F)cccc1Cl)c1ccc(-c2cc(C(N)=O)nn2C(C)C)cc1OCC(F)(F)F |
| 400 nM | – | 800 nM | 2200 nM | – | 0.002 | 0.003 | 0.3 µg/mL (≈ 0.566 µM) | CC(=O)Nc1nc(C(C)C)c(-c2cnc(N(C)C(=O)c3c(F)cccc3Cl)c(N3CCCCC3)c2)s1 |
| – | – | – | – | 150 nM | – | – | – | [2H]C([2H])([2H])N(C(=O)c1c(F)cccc1Cl)c1ccc(-c2cc(NC(=O)OC3(C)CC3)nn2C(C)C)cc1N1CC2CC2C1 (stereo not drawn) |
| – | 120 nM | – | – | – | – | – | – | [2H]C([2H])([2H])N(C(=O)c1c(F)cccc1Cl)c1ccc(-c2cc(NC(=O)CO)nn2C(C)C)cc1N1CC2CC2C1 (stereo not drawn) |
| – | 134 nM | – | – | – | – | – | – | [2H]C([2H])([2H])N(C(=O)c1c(F)cccc1Cl)c1ccc(-c2cc(NC(=O)[C@H]3C[C@H](O)C3)nn2C(C)C)cc1N1CC2CC2C1 (stereo partly drawn) |
| – | – | – | – | – | – | – | 0.8 µg/mL (≈ 1.48 µM) | [2H]C([2H])([2H])N(C(=O)c1c(F)cccc1Cl)c1ccc(-c2cc(NC(C)=O)nn2CC(C)(C)C)cc1N1CC2CC2C1 (stereo not drawn) |
| – | – | – | – | – | – | – | 27 µg/mL (≈ 50.9 µM) | [2H]C([2H])([2H])N(C(=O)c1c(F)cccc1Cl)c1ccc(-c2cc(NC(C)=O)nn2C(C)C)cc1OCC(F)(F)F |
| 1300 nM | – | 6200 nM | > 10000 nM | – | 0.022 | 0.056 | 48 µg/mL (≈ 93.4 µM) | [2H]C([2H])([2H])N(C(=O)c1c(F)cccc1Cl)c1ncc(-c2cc(NC(C)=O)nn2C(C)C)cc1N1CC2CC2C1 (stereo not drawn) |
| – | 128 nM | – | – | 15 nM | – | – | – | [2H]C([2H])([2H])N(C(=O)c1c(F)cccc1Cl)c1ccc(-c2cc(NC(=O)C(C)C)nn2C(C)C)cc1N1CC2CC2C1 (stereo not drawn) |
| – | 33 nM | – | – | – | – | – | – | [2H]C([2H])([2H])N(C(=O)c1c(F)cccc1Cl)c1ccc(-c2cc(NC(=O)CC)nn2C(C)C)cc1N1CC2CC2C1 (stereo not drawn) |
| – | 110 nM | 1700 nM | 1900 nM | – | 0.002 | 0.009 | – | CC(=O)Nc1cc(-c2ccc(N(C)C(=O)c3c(F)cccc3Cl)c(N3CC4CC4C3)c2)n(C(C)C)n1 (stereo not drawn) |
| – | 199 nM | – | – | – | 0.0004 | 0.003 | 0.5 µg/mL (≈ 0.952 µM) | [2H]C([2H])([2H])N(C(=O)c1c(F)cccc1Cl)c1ccc(-c2cc(NC(C)=O)nn2C2CCC2)cc1N1CC2CC2C1 (stereo not drawn) |
| – | 148 nM | – | – | – | – | – | – | [2H]C([2H])([2H])N(C(=O)c1c(F)cccc1Cl)c1ccc(-c2cc(NC(=O)N3CC4(COC4)C3)nn2C(C)C)cc1N1CC2CC2C1 (stereo not drawn) |
| – | 88 nM | – | – | – | – | – | – | [2H]C([2H])([2H])N(C(=O)c1c(F)cccc1Cl)c1ccc(-c2cc(NC(=O)C3CC3)nn2C(C)C)cc1N1CC2CC2C1 (stereo not drawn) |
| 800 nM | – | 1000 nM | 1400 nM | – | 0.009 | 0.017 | 12 µg/mL (≈ 24 µM) | [2H]C([2H])([2H])N(C(=O)c1c(F)cccc1Cl)c1ccc(-c2cc(NC(C)=O)nn2C(C)C)cc1N1CCCC1 |
| > 10000 nM | 355 nM | 1500 nM | 2000 nM | – | 0.002 | 0.011 | 17 µg/mL (≈ 34.5 µM) | [2H]C([2H])([2H])N(C(=O)c1c(C)cccc1F)c1ccc(-c2cc(NC(C)=O)nn2C(C)C)cc1N1CC2CC2C1 (stereo not drawn) |
| 900 nM | – | 1300 nM | 9300 nM | – | – | – | 0.5 µg/mL (≈ 0.928 µM) | [2H]C([2H])([2H])N(C(=O)c1c(F)cccc1Cl)c1ccc(-c2cc(NC(C)=O)nn2C(C)C2CC2)cc1N1CC2CC2C1 (stereo not drawn) |
| – | – | – | – | – | 0.002 | 0.003 | – | [2H]C([2H])([2H])N(C(=O)c1c(F)cccc1Cl)c1ccc(-c2cc(NC(C)=O)nn2C(C)C)cc1OCC(C)C |
| > 10000 nM | – | 1100 nM | 2100 nM | – | 0.004 | 0.004 | – | [2H]C([2H])([2H])N(C(=O)c1c(F)cccc1Cl)c1ccc(-c2cc(NC(C)=O)nn2C(C)C)cc1-c1ccccc1 |
| 8800 nM | 201 nM | 1800 nM | 1800 nM | – | 0.002 | 0.005 | 10.1 µg/mL (≈ 19.2 µM) | [2H]C([2H])([2H])N(C(=O)c1c(F)cccc1Cl)c1ccc(-c2cc(NC(C)=O)nn2CC2CC2)cc1N1CC2CC2C1 (stereo not drawn) |
| 500 nM | 60 nM | 1300 nM | 1300 nM | – | < 0.0005 | 0.002 | 0.1 µg/mL (≈ 0.186 µM) | [2H]C([2H])([2H])N(C(=O)c1c(F)cccc1Cl)c1ccc(-c2cc(NC(C)=O)nn2C2CCCC2)cc1N1CC2CC2C1 (stereo not drawn) |

Source: ChEMBL document CHEMBL3596090, “Discovery of novel pyrazole-containing benzamides as potent RORγ inverse agonists” (Bioorg Med Chem Lett, 2015)
